Measurements as given in PubChem BioAssay (NCI).
Several values for one entry are separate records, joined by “and”; a condition that tells them apart may be missing. Equal values may be shown once.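 All cell lines were grown in 96-well plates and treated with compound for 48 hours. The concentration for 50% growth inhibition is given as GI50. The concentration for full growth arrest is given as TGI.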

Key:
Assay in all cases: DTP human tumour cell line panel, 48 h
BT-549 breast = test system: BT-549 breast
CCRF-CEM leukemia = test system: CCRF-CEM leukemia
DU-145 prostate = test system: DU-145 prostate
HCT-116 colon = test system: HCT-116 colon
HL-60(TB) leukemia = test system: HL-60(TB) leukemia
HOP-62 NSCLC = test system: HOP-62 NSCLC
HOP-92 NSCLC = test system: HOP-92 NSCLC
HS 578T breast = test system: HS 578T breast
HT29 colon = test system: HT29 colon
IGROV1 ovarian = test system: IGROV1 ovarian
K-562 leukemia = test system: K-562 leukemia
MCF7 breast = test system: MCF7 breast
MDA-MB-231 breast = test system: MDA-MB-231 breast
MDA-N = test system: MDA-N
NCI-H460 lung = test system: NCI-H460 lung
NCI-H522 lung = test system: NCI-H522 lung
OVCAR-4 ovarian = test system: OVCAR-4 ovarian
RXF 393 renal = test system: RXF 393 renal
SF-295 CNS = test system: SF-295 CNS
SF-539 CNS = test system: SF-539 CNS
SK-MEL-5 melanoma = test system: SK-MEL-5 melanoma
SNB-75 CNS = test system: SNB-75 CNS
SW-620 colon = test system: SW-620 colon
UO-31 renal = test system: UO-31 renal
786-0 renal = test system: 786-0 renal
A498 renal = test system: A498 renal
A549 NSCLC = test system: A549 NSCLC
ACHN renal = test system: ACHN renal
CAKI-1 renal = test system: CAKI-1 renal
COLO 205 colon = test system: COLO 205 colon
EKVX NSCLC = test system: EKVX NSCLC
HCC-2998 colon = test system: HCC-2998 colon
HCT-15 colon = test system: HCT-15 colon
KM12 colon = test system: KM12 colon
LOX IMVI melanoma = test system: LOX IMVI melanoma
M14 melanoma = test system: M14 melanoma
MALME-3M melanoma = test system: MALME-3M melanoma
MDA-MB-435 = test system: MDA-MB-435
MOLT-4 leukemia = test system: MOLT-4 leukemia
NCI-H226 lung = test system: NCI-H226 lung
NCI-H23 lung = test system: NCI-H23 lung
NCI/ADR-RES ovarian = test system: NCI/ADR-RES ovarian
OVCAR-3 ovarian = test system: OVCAR-3 ovarian
OVCAR-5 ovarian = test system: OVCAR-5 ovarian
OVCAR-8 ovarian = test system: OVCAR-8 ovarian
PC-3 prostate = test system: PC-3 prostate
RPMI-8226 leukemia = test system: RPMI-8226 leukemia
SF-268 CNS = test system: SF-268 CNS
SK-MEL-2 melanoma = test system: SK-MEL-2 melanoma
SK-MEL-28 melanoma = test system: SK-MEL-28 melanoma
SK-OV-3 ovarian = test system: SK-OV-3 ovarian
SN12C renal = test system: SN12C renal
SNB-19 CNS = test system: SNB-19 CNS
SR leukemia = test system: SR leukemia
T-47D breast = test system: T-47D breast
TK-10 renal = test system: TK-10 renal
U251 CNS = test system: U251 CNS
UACC-257 melanoma = test system: UACC-257 melanoma
UACC-62 melanoma = test system: UACC-62 melanoma

`CC(CN(C)C)Nc1c2ccccc2nc2cccc([N+](=O)[O-])c12` (stereo unspecified) showed a GI50 (BT-549 breast) of 540 nM, a TGI (BT-549 breast) of 1900 nM and a TGI (CCRF-CEM leukemia) of 2870 nM. For the same compound, the GI50 (DU-145 prostate) was 74.7 nM and < 21.9 nM, the TGI (DU-145 prostate) was 11900 nM and the GI50 (HCT-116 colon) was 26 nM and < 10 nM. The GI50 (HL-60(TB) leukemia) was 18.2 nM, the GI50 (HOP-62 NSCLC) was 120 nM and < 13 nM and the GI50 (HOP-92 NSCLC) was 226 nM and 25.8 nM. The GI50 (HS 578T breast) was less than 10 nM, the TGI (HS 578T breast) was less than 10 nM and the TGI (HT29 colon) was 1020 nM and 413 nM. For the same compound, the TGI (IGROV1 ovarian) was 10100 nM, the TGI (K-562 leukemia) was 764 nM and the TGI (MCF7 breast) was 636 nM. For the same compound, the TGI (MDA-MB-231 breast) was 2640 nM, the TGI (MDA-N) was 748 nM and the GI50 (NCI-H460 lung) was 24.8 nM and < 11.1 nM. The TGI (NCI-H460 lung) was 206 nM and 711 nM, the TGI (NCI-H522 lung) was 111 nM and the TGI (OVCAR-4 ovarian) was 610 nM and 5210 nM. The TGI (RXF 393 renal) was 14900 nM, the GI50 (SF-295 CNS) was 96.8 nM and < 10 nM and the GI50 (SF-539 CNS) was 337 nM and < 37.8 nM. For the same compound, the TGI (SF-539 CNS) was 1310 nM, the GI50 (SK-MEL-5 melanoma) was 71.5 nM and < 10 nM and the GI50 (SNB-75 CNS) was 342 nM and 43.1 nM. For the same compound, the TGI (SNB-75 CNS) was 1590 nM and 268 nM, the GI50 (SW-620 colon) was 306 nM and the TGI (SW-620 colon) was 11800 nM. For the same compound, the GI50 (UO-31 renal) was 188 nM and < 23.7 nM and the TGI (UO-31 renal) was 457 nM and 887 nM.
In the case of `Cc1nc2c3c(ncn2n1)Oc1c(c(-c2ccccc2)nn1-c1ccccc1)C3c1ccc(Cl)cc1` (stereo unspecified), the TGI (786-0 renal) is reported as greater than 100000 nM, the TGI (A498 renal) is reported as greater than 100000 nM and the TGI (A549 NSCLC) is reported as greater than 100000 nM. For the same compound, the TGI (ACHN renal) was greater than 100000 nM, the TGI (CAKI-1 renal) was greater than 100000 nM and the TGI (COLO 205 colon) was greater than 100000 nM. For the same compound, the TGI (DU-145 prostate) was greater than 100000 nM, the TGI (EKVX NSCLC) was greater than 100000 nM and the TGI (HCC-2998 colon) was greater than 100000 nM. It also gave a TGI (HCT-116 colon) greater than 100000 nM, a TGI (HCT-15 colon) greater than 100000 nM and a TGI (HOP-62 NSCLC) greater than 100000 nM. For the same compound, the TGI (HOP-92 NSCLC) was greater than 100000 nM, the TGI (HS 578T breast) was 74100 nM and the TGI (HT29 colon) was greater than 100000 nM. For the same compound, the TGI (IGROV1 ovarian) was greater than 100000 nM, the TGI (K-562 leukemia) was greater than 100000 nM and the TGI (KM12 colon) was greater than 100000 nM. The TGI (LOX IMVI melanoma) was greater than 100000 nM, the TGI (M14 melanoma) was greater than 100000 nM and the TGI (MALME-3M melanoma) was greater than 100000 nM. For the same compound, the TGI (MCF7 breast) was greater than 100000 nM, the TGI (MDA-MB-231 breast) was greater than 100000 nM and the TGI (MDA-MB-435) was greater than 100000 nM. The TGI (MDA-N) was greater than 100000 nM, the TGI (MOLT-4 leukemia) was greater than 100000 nM and the TGI (NCI-H226 lung) was greater than 100000 nM. The TGI (NCI-H23 lung) was greater than 100000 nM, the TGI (NCI-H460 lung) was greater than 100000 nM and the TGI (NCI/ADR-RES ovarian) was greater than 100000 nM. The TGI (OVCAR-3 ovarian) was greater than 100000 nM, the TGI (OVCAR-4 ovarian) was greater than 100000 nM and the TGI (OVCAR-5 ovarian) was greater than 100000 nM. The TGI (OVCAR-8 ovarian) was greater than 100000 nM, the TGI (PC-3 prostate) was greater than 100000 nM and the TGI (RPMI-8226 leukemia) was greater than 100000 nM. The TGI (RXF 393 renal) was greater than 100000 nM, the TGI (SF-268 CNS) was greater than 100000 nM and the TGI (SF-295 CNS) was greater than 100000 nM. The TGI (SF-539 CNS) was 97100 nM, the TGI (SK-MEL-2 melanoma) was greater than 100000 nM and the TGI (SK-MEL-28 melanoma) was greater than 100000 nM. The TGI (SK-OV-3 ovarian) was greater than 100000 nM, the TGI (SN12C renal) was greater than 100000 nM and the TGI (SNB-19 CNS) was greater than 100000 nM. The TGI (SNB-75 CNS) was greater than 100000 nM, the TGI (SR leukemia) was greater than 100000 nM and the TGI (SW-620 colon) was greater than 100000 nM. It also gave a TGI (T-47D breast) greater than 100000 nM, a TGI (TK-10 renal) greater than 100000 nM and a TGI (U251 CNS) greater than 100000 nM. The TGI (UACC-257 melanoma) was greater than 100000 nM, the TGI (UACC-62 melanoma) was greater than 100000 nM and the TGI (UO-31 renal) was greater than 100000 nM.
